Assay results as given in the Kinase Knowledgebase extract (Sharma et al. 2016).

Molecular target: ROCK2 (human) (UniProt O75116)
Assay: Assessment of ROCK2 Kinase Activity

Sequence of ROCK2 (human) (O75116 whole entry, looked up): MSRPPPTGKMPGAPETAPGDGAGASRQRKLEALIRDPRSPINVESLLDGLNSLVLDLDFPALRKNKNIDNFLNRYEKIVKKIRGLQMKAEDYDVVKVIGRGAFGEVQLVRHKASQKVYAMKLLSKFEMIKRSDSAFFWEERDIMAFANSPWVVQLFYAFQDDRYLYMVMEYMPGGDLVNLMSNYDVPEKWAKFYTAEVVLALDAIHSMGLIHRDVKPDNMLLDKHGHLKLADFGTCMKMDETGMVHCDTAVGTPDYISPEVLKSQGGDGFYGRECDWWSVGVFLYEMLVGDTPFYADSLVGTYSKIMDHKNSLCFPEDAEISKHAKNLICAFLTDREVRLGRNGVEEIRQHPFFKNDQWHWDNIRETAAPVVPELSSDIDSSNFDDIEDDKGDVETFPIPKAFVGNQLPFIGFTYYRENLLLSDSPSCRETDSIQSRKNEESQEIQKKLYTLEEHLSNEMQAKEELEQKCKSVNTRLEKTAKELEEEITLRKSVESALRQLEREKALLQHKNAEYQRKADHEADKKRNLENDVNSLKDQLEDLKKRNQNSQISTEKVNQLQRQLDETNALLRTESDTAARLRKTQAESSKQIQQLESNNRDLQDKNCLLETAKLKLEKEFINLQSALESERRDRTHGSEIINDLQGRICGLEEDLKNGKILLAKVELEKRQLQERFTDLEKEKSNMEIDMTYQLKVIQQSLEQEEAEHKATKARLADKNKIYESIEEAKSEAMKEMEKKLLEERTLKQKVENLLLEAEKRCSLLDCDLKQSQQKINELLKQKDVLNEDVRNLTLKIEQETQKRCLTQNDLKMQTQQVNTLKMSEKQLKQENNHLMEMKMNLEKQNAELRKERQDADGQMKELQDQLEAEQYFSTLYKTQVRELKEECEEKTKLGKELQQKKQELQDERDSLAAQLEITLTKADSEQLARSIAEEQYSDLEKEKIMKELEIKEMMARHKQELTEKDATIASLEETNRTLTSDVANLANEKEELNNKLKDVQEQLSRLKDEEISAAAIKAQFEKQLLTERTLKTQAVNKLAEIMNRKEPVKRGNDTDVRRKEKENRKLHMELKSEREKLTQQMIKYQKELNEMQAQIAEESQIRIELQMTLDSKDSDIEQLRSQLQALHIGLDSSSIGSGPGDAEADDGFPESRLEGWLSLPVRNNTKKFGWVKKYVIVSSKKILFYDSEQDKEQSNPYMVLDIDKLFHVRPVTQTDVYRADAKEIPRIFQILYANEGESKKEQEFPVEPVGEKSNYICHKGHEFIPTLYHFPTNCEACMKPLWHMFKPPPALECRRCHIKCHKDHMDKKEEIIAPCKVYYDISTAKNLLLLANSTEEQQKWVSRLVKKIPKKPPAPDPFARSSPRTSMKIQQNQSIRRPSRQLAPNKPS

For COc1cccc(CNC(=O)Nc2ccc(-c3ccncc3)cc2)c1, which IC50 is on record?
Its IC50 is 5 nM.

Which IC50 does the source give for COc1cccc(CNC(=O)Nc2ccc(-c3cn[nH]c3)cc2)c1 here?
Its IC50 is 2 nM.

COc1cccc(CNC(=O)Nc2ccc(-c3cn[nH]c3)cc2F)c1 was tested. Which IC50 did it give?
Its IC50 is less than 1 nM.

For CCN(Cc1cccc(OC)c1)C(=O)Nc1ccc(-c2cn[nH]c2)cc1OCCN(C)C, which IC50 is on record?
Its IC50 is 3 nM.

For COc1cccc(CNC(=O)Nc2ccc(-c3c[nH]nc3C)cc2)c1, which IC50 is on record?
Its IC50 is 2 nM.

With COc1ccc(CNC(=O)Nc2ccc(-c3cn[nH]c3)cc2)cc1 as the compound, how does the IC50 read?
The IC50 was 2750 nM.

With O=C(NCc1cccc(Cl)c1)Nc1ccc(-c2cn[nH]c2)cc1 as the compound, how does the IC50 read?
The IC50 was 17 nM.

For O=C(NCc1ccccc1)Nc1ccc(-c2cn[nH]c2)cc1, which IC50 is on record?
The IC50 was 18 nM.

How did the IC50 turn out when O=C(NCc1cccc(F)c1)Nc1ccc(-c2cn[nH]c2)cc1 was run?
The IC50 was 3 nM.

Which IC50 does the source give for Nc1cccc(CNC(=O)Nc2ccc(-c3cn[nH]c3)cc2)c1 here?
The IC50 was 3 nM.

For CCN(Cc1cccc(OC)c1)C(=O)Nc1ccc(-c2cn[nH]c2)cc1N(C)CCN(C)C, which IC50 is on record?
The IC50 was 6 nM.

COc1cccc(CNC(=O)Nc2ccc(-c3cn[nH]c3)cc2OCCN2CCCC2)c1 was tested. Which IC50 did it give?
The IC50 was less than 1 nM.

COc1cccc(CN(C)C(=O)Nc2ccc(-c3cn[nH]c3)cc2OCCN(C)C)c1 was tested. Which IC50 did it give?
The IC50 was less than 1 nM.

COc1cccc(CNC(=O)Nc2ccc(-c3ccnc(N)n3)cc2)c1 was tested. Which IC50 did it give?
The IC50 was 13 nM.

How did the IC50 turn out when COc1cccc(CNC(=O)Nc2ccc(-c3ncnc4[nH]ccc34)cc2)c1 was run?
The IC50 was 188 nM.

How did the IC50 turn out when COc1ccccc1CNC(=O)Nc1ccc(-c2cn[nH]c2)cc1 was run?
Its IC50 is 26 nM.

How did the IC50 turn out when COc1cccc(CNC(=O)Nc2ccc(-c3cn[nH]c3)cc2Cl)c1 was run?
Its IC50 is less than 1 nM.

With COc1cccc(CNC(=O)Nc2ccc(-c3cn[nH]c3)cc2N(C)C)c1 as the compound, how does the IC50 read?
Its IC50 is less than 1 nM.

How did the IC50 turn out when Cc1cccc(CNC(=O)Nc2ccc(-c3cn[nH]c3)cc2)c1 was run?
The IC50 was 33 nM.

COc1cccc(CN(C)C(=O)Nc2ccc(-c3cn[nH]c3)cc2N(C)CCN(C)C)c1 was tested. Which IC50 did it give?
The IC50 was 8 nM.

With COc1cccc(CNC(=O)Nc2ccc(-c3cn[nH]c3)cc2OC)c1 as the compound, how does the IC50 read?
Its IC50 is less than 1 nM.

COc1cccc(CNC(=O)Nc2ccc(-c3cn[nH]c3)cc2OCCN(C)C)c1 was tested. Which IC50 did it give?
The IC50 was less than 1 nM.

With COc1cccc(CN(C)C(=O)Nc2ccc(-c3cn[nH]c3)cc2OCCN2CCCC2)c1 as the compound, how does the IC50 read?
The IC50 was less than 1 nM.

With COc1cccc(CNC(=O)Nc2ccc(-c3ccnc(N)c3)cc2)c1 as the compound, how does the IC50 read?
The IC50 was 44 nM.

Which IC50 does the source give for COc1cccc(CNC(=O)Nc2ccc(-c3cn[nH]c3)cc2N(C)CCN(C)C)c1 here?
Its IC50 is less than 1 nM.

For CCN(Cc1cccc(OC)c1)C(=O)Nc1ccc(-c2cn[nH]c2)cc1OCCN1CCCC1, which IC50 is on record?
The IC50 was less than 1 nM.
